Source: article PMC10987480, “Biological and mutational analyses of CXCR4–antagonist interactions and design of new antagonistic analogs” (Bioscience Reports, 2023)
Positions of bridges follow the written chain, without caps; N, C: chain ends. Non-standard residues stand in square brackets, D forms with d. Residues, ends and D or L forms follow the SMILES beside them. Chains are numbered I, II in the order given. 2Nal = N[C@@H](Cc1ccc2ccccc2c1)C(=O)O; Lys(iPr) = CC(C)NCCCC[C@H](N)C(=O)O

Tests used:
[1] = target: T1, CXCR4 (Homo sapiens, UniProt P61073); test: SDF-1α-induced calcium mobilization assay in SupT1 cells (Fluo-4); assay type: cell-based; set-up: host or cells: SupT1 cells; conditions: 50 nM SDF-1α
Procedure: (§1) Figure 2 The inhibitory effect of the antagonists on SDF-1α-induced cell chemotaxis and calcium mobilization in SupT1 cells The antagonists and concentrations used were labeled in each lane. (A) The inhibition of cell migration by the noted antagonists. SupT1 cells pre-treated with or without CXCR4 antagonists were seeded in the upper well and cell migrated by 2 nM SDF-1α. Migrated cells without SDF-1α were used as a negative (0%) and migrated cell induced by SDF-1α as a positive control (100%). […] SupT1 cells were treated with or without CXCR4 antagonists and activated by 50 nM SDF-1α. To directly compare the inhibitory effect of the antagonists on calcium mobilization, the vehicle background and baseline were removed using GraphPad and Origin. The data were averages of at least three independent experiments.
SupT1 cells were collected and washed using HHBS buffer (Hanks’ Balanced Salt solution supplemented with 20 mM HEPES) and incubated with 1 mM probenecid (Energy Chemical, China) and 4 μM Fluo-4 (AAT bioquest, U.S.A.) for 37°C for 30 min with vortex every 5 min. After being washed with HHBS, cells were suspended in PBS at 2 × 10^6/ml and seeded 200 μl cells and various concentrations of compounds per well in 96-well plate. Following 50 nM SDF-1α was added to each well, the fluorescence intensity was measured (Ex/Em = 496/516 nm) using EnSpire® multimode plate reader (PerkinElmer, U.S.A.).

[2] = target: T2, CXCR4 F87A (Homo sapiens, UniProt P61073, F87A); test: Competitive binding to CXCR4 mutant F87A (12G5, CHO cells); conditions: TM2, class of reduction vs wild-type CXCR4, 12G5 competition, averages of at least three independent experiments
T2 construct: expressed in transfected cells
Procedure: (§2) Plasmid pcDNA3-CXCR4 and mutated pcDNA3-CXCR4 were extracted and transfected into CHO cells using Lipofectamine 2000 according to the manufacturer’s guidelines. The selective medium containing G418 at a concentration of 1.2 mg/ml was applied to isolate stably transfected cells. CHO cells expressing wild-type CXCR4 and mutant CXCR4 were obtained using fluorescence-activated cell sorting (FACS).
(§3) All of the CXCR4 mutants were prepared using PCR technology. Briefly, pairs of asymmetrical primers containing the desired amino acid mutations (Supplementary Tables S1 and S2), each complementary to opposite strands of the pcDNA3–CXCR4, were designed for amplification by Q5® High-Fidelity DNA polymerase and the generation of mutated constructs. The methylated pcDNA3–CXCR4 templates were digested by DpnI. The mutated pcDNA3–CXCR4 was transformed into competent E. coli TOP10 for long-term storage and amplification.
(§4) The procedure for the CXCR4 competitive binding experiments was published previously. Briefly, CXCR4 antibody 12G5 (250 ng/ml) was incubated with 5 × 10^5 cells and varying concentrations of unlabeled compounds in a final volume of 100 μl of assay buffer (PBS with 0.5% BSA and 0.05% NaN3) in 96-well plates for 40 min on ice, after being washed with assay buffer once. The cells were incubated with FITC-conjugated second antibody IgG for 30 min on ice, then washed with assay buffer three times. The fluorescence intensity was measured for excitation at 485 nm and emission at 535 nm using multimode plate reader (PerkinElmer). The IC50 values were calculated using graphpad Prism 7. Experiments were performed at least three times.

[3] = target: T1, CXCR4; test: SDF-1α-induced cell migration assay in SupT1 cells (transwell); assay type: cell-based; set-up: host or cells: SupT1 cells; conditions: 2 nM SDF-1α, 30 min pre-incubation, 3 h migration; for inhibition at 0.2 µM: SUP-T1, at 200 nM
Procedure: as §1
SupT1 cells (2 × 10^6 cells per well in 75 μl) were collected and washed using assay buffer (RPMI 1640 supplemented with 0.5% BSA) and incubated with various concentrations of tested compounds for 30 min in the upper well of the transwell-96 well plates with 5.0 µm pore polycarbonate membrane insert (Corning, U.S.A.). Then, 200 μl assay buffer containing 2 nM SDF-1α was added to the lower well and cells were allowed to migrate for 3 h. Migrated cells were measured using celltiter-96 reagent.

[4] = target: T3, CXCR4 Y45A (Homo sapiens, UniProt P61073, Y45A); test: Competitive binding to CXCR4 mutant Y45A (12G5, CHO cells); conditions: TM1, class of reduction vs wild-type CXCR4, 12G5 competition, averages of at least three independent experiments
T3 construct: expressed in transfected cells
Procedure: as §2, §3, §4

[5] = target: T4, CXCR4 N119A (Homo sapiens, UniProt P61073, N119A); test: Competitive binding to CXCR4 mutant N119A (12G5, CHO cells); conditions: TM3, class of reduction vs wild-type CXCR4, 12G5 competition, averages of at least three independent experiments
T4 construct: expressed in transfected cells
Procedure: as §2, §3, §4

[6] = target: T5, CXCR4 D262E (Homo sapiens, UniProt P61073, D262E); test: Competitive binding to CXCR4 mutant D262E (12G5, CHO cells); conditions: TM6, class of reduction vs wild-type CXCR4, 12G5 competition, averages of at least three independent experiments
T5 construct: expressed in transfected cells
Procedure: as §2, §3, §4

[7] = test system: CXCR4; conditions: cited from earlier work
Description: To understand the receptor–ligand recognition mechanism involving CXCR4 and its antagonists, here in this study we conducted a series of comparative analyses of the biological activities and CXCR4 binding sites of eleven known CXCR4 antagonists, including the three mentioned above, using cell-based bioassays, CXCR4 site-directed mutagenesis and computer-aided molecular modeling. These antagonists studied here were chosen from different representative structural types including both D-peptides (i.e., HC4319, DV1, DV1 dimer, and DV3) and a representative counterpart L-peptide (i.e., V1) derived ...

[8] = target: T6, CXCR4 Q200A (Homo sapiens, UniProt P61073, Q200A); test: Competitive binding to CXCR4 mutant Q200A (12G5, CHO cells); set-up: key to the marks not given beside the values; conditions: TM5, class of reduction vs wild-type CXCR4, 12G5 competition, averages of at least three independent experiments
T6 construct: expressed in transfected cells
Procedure: as §2, §3, §4

[9] = target: T7, CXCR4 D97A (Homo sapiens, UniProt P61073, D97A); test: Competitive binding to CXCR4 mutant D97A (12G5, CHO cells); conditions: TM2, class of reduction vs wild-type CXCR4, 12G5 competition, averages of at least three independent experiments
T7 construct: expressed in transfected cells
Procedure: as §2, §3, §4

[10] = target: T8, CXCR4 D262N (Homo sapiens, UniProt P61073, D262N); test: Competitive binding to CXCR4 mutant D262N (12G5, CHO cells); conditions: TM6, class of reduction vs wild-type CXCR4, 12G5 competition, averages of at least three independent experiments
T8 construct: expressed in transfected cells
Procedure: as §2, §3, §4

[11] = target: T9, CXCR4 W94A (Homo sapiens, UniProt P61073, W94A); test: Competitive binding to CXCR4 mutant W94A (12G5, CHO cells); conditions: TM2, class of reduction vs wild-type CXCR4, 12G5 competition, averages of at least three independent experiments
T9 construct: expressed in transfected cells
Procedure: as §2, §3, §4

[12] = target: T10, CXCR4 E288A (Homo sapiens, UniProt P61073, E288A); test: Competitive binding to CXCR4 mutant E288A (12G5, CHO cells); conditions: TM7, class of reduction vs wild-type CXCR4, 12G5 competition, averages of at least three independent experiments
T10 construct: expressed in transfected cells
Procedure: as §2, §3, §4

[13] = target: T11, CXCR4 E288D (Homo sapiens, UniProt P61073, E288D); test: Competitive binding to CXCR4 mutant E288D (12G5, CHO cells); conditions: TM7, class of reduction vs wild-type CXCR4, 12G5 competition, averages of at least three independent experiments
T11 construct: expressed in transfected cells
Procedure: as §2, §3, §4

T3 sequence (P61073 whole entry Y45A): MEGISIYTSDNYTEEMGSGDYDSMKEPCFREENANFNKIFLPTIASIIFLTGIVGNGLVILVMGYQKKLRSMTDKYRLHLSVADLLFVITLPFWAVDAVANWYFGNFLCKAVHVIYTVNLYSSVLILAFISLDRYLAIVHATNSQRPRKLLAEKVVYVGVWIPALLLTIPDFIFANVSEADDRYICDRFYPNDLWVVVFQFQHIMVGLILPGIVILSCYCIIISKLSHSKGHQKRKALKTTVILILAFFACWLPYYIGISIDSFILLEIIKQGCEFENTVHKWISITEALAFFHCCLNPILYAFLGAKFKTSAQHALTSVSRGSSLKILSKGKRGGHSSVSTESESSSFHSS
T1 sequence (P61073 whole entry): as the sequence (P61073 whole entry Y45A) above, with A45Y counted along it
T4 sequence (P61073 whole entry N119A): as the sequence (P61073 whole entry Y45A) above, with A45Y, N119A counted along it
T8 sequence (P61073 whole entry D262N): as the sequence (P61073 whole entry Y45A) above, with A45Y, D262N counted along it
T6 sequence (P61073 whole entry Q200A): as the sequence (P61073 whole entry Y45A) above, with A45Y, Q200A counted along it
T7 sequence (P61073 whole entry D97A): as the sequence (P61073 whole entry Y45A) above, with A45Y, D97A counted along it
T5 sequence (P61073 whole entry D262E): as the sequence (P61073 whole entry Y45A) above, with A45Y, D262E counted along it
T2 sequence (P61073 whole entry F87A): as the sequence (P61073 whole entry Y45A) above, with A45Y, F87A counted along it
T11 sequence (P61073 whole entry E288D): as the sequence (P61073 whole entry Y45A) above, with A45Y, E288D counted along it
T10 sequence (P61073 whole entry E288A): as the sequence (P61073 whole entry Y45A) above, with A45Y, E288A counted along it
T9 sequence (P61073 whole entry W94A): as the sequence (P61073 whole entry Y45A) above, with A45Y, W94A counted along it

| SMILES | Inhibition of calcium mobilization (in words) ([1]; at 5 nM) | Competitive receptor binding activity, CXCR4 F87A [2] | inhibition at 0.2 µM [3] | Competitive receptor binding activity, CXCR4 Y45A [4] | Competitive receptor binding activity, CXCR4 N119A [5] | Competitive receptor binding activity, CXCR4 D262E [6] | Potency (in words) [7] | Competitive receptor binding activity, CXCR4 Q200A [8] | Competitive receptor binding activity, CXCR4 D97A [9] | inhibition at 0.005 µM ([1]; SUP-T1, at 5 nM) | Competitive receptor binding activity, CXCR4 D262N [10] | Competitive receptor binding activity, CXCR4 W94A [11] | inhibition at 1 µM ([1]; SUP-T1, at 1 μM) | Competitive receptor binding activity, CXCR4 E288A [12] | inhibition at 4 µM ([3]; SUP-T1, at 4 μM) | Competitive receptor binding activity, CXCR4 E288D [13] | Inhibition of calcium mobilization (in words) ([1]; single concentration (Figure 2B)) | inhibition at 0.4 µM ([3]; SUP-T1, at 400 nM) | Binding affinity (in words) [7] |
| --- | --- | --- | --- | --- | --- | --- | --- | --- | --- | --- | --- | --- | --- | --- | --- | --- | --- | --- | --- |
| c1cc(CN2CCCNCCNCCCNCC2)ccc1CN1CCCNCCNCCCNCC1 [AMD3100] | very weak inhibition | ++ (10–29% reduction compared with wild-type CXCR4) | 61% | ++ (10–29% reduction compared with wild-type CXCR4) | +++ | + (30–60% reduction compared with wild-type CXCR4) | submicromolar | +++ | ++ (10–29% reduction compared with wild-type CXCR4) | – | – | – | – | – | – | – | – | – | – |
| NCCCCN(Cc1nc2ccccc2[nH]1)[C@H]1CCCc2cccnc21 [AMD11070] | – | + (30–60% reduction compared with wild-type CXCR4) | 80% | ++ (10–29% reduction compared with wild-type CXCR4) | +++ | +++ | nanomolar potent | +++ | + (30–60% reduction compared with wild-type CXCR4) | 71% | +++ | ++ (10–29% reduction compared with wild-type CXCR4) | – | – | – | – | – | – | – |
| CC(C)C[C@@H](N)C(=O)NCC(=O)N[C@H](C)C(=O)N[C@H](CO)C(=O)N[C@H](Cc1c[nH]c2ccccc12)C(=O)N[C@H](Cc1c[nH]cn1)C(=O)N[C@H](CCCNC(=N)N)C(=O)N1CCC[C@@H]1C(=O)N[C@H](CC(=O)O)C(=O)N[C@H](CCCCN)C(=O)NCCCC[C@@H](NC(=O)[C@H]1CCCN1C(=O)[C@@H](CC(C)C)NC(=O)[C@H]1CCCN1C(=O)[C@@H](CCCNC(=N)N)NC(=O)[C@@H](CCCCN)NC(=O)[C@@H](CCC(N)=O)NC(=O)[C@@H](Cc1ccc(O)cc1)NC(=O)CNC(=O)[C@@H](CC(C)C)NC(=O)[C@@H](CS)NC(=O)[C@@H](CS)NC(=O)[C@@H](CCCCN)NC(=O)[C@@H](CC(=O)O)NC(=O)[C@H]1CCCN1C(=O)[C@@H](CCCNC(=N)N)NC(=O)[C@@H](Cc1c[nH]cn1)NC(=O)[C@@H](Cc1c[nH]c2ccccc12)NC(=O)[C@@H](CO)NC(=O)[C@@H](C)NC(=O)CNC(=O)[C@H](N)CC(C)C)C(=O)O [HC4319] (I: H-[dL]G[dA][dS][dW][dH][dR][dP][dD][dK][dC][dC][dL]G[dY][dQ][dK][dR][dP][dL][dP][dK]-OH / II: H-[dL]G[dA][dS][dW][dH][dR][dP][dD][dK]; amide I:22-II:C; N-terminus and C-terminus assumed) | – | – | – | + (30–60% reduction compared with wild-type CXCR4) | – | ++ (10–29% reduction compared with wild-type CXCR4) | – | +++ | ++ (10–29% reduction compared with wild-type CXCR4) | – | ++ (10–29% reduction compared with wild-type CXCR4) | – | 77% | + (30–60% reduction compared with wild-type CXCR4) | 56% | + (30–60% reduction compared with wild-type CXCR4) | – | – | – |
| CC(C)NCCCC[C@H](NC(=O)[C@H]1CCC(=O)N[C@@H](Cc2ccccc2)C(=O)N[C@@H](Cc2ccc(O)cc2)C(=O)N[C@@H](CCCCNC(C)C)C(=O)N[C@H](CCCNC(=N)N)C(=O)N[C@@H](Cc2ccc3ccccc3c2)C(=O)NCC(=O)N1)C(N)=O [LY2510924] (FY[Lys(iPr)][dR][2Nal]G[dE][Lys(iPr)]-NH2; lactam N-7 (inferred)) | – | – | – | + (30–60% reduction compared with wild-type CXCR4) | + (30–60% reduction compared with wild-type CXCR4) | ++ (10–29% reduction compared with wild-type CXCR4) | – | – | + (30–60% reduction compared with wild-type CXCR4) | – | +++ | – | – | – | – | – | significant inhibition | 76% | subnanomolar |
